US10925848B2, “Amide derivative” (Daiichi Sankyo Company, Limited, priority 2017, dated 2021)

Tests used:
Bacteroides = test: Indole production suppressing effect in viable bacterium; assay type: cell-based; conditions: 5 mM L-Tryptophan assay medium, anaerobic, indole in culture supernatant, read-out: Bacteroides Indole Production Inhibitory Activity(IC50)
Procedure: The effect of a tryptophanase inhibitory compound to suppress indole production from a viable bacterium can be evaluated through the following operation.
When E. coli (Eschelicia coli) is used as a strain known to produce indole, the strain is cultured in an LB medium at 37° C. for 12 to 18 hours under anaerobic conditions, and then, suspended in an assay medium (5 mM L-Tryptophan/PBS(+)/25 mM HEPES (pH8)) in such a manner as to obtain O.D. of about 0.3. When bacteroides is used, the strain is cultured in a modified GAM medium at 37° C. for 12 to 18 hours under anaerobic conditions, and then suspended in an assay medium (5 mM L-Tryptophan/PBS(+)/25 mM HEPES (pH8)) in such a manner as to obtain O.D. of about 1.1. The thus obtained viable bacterial suspension prepared to have a final concentration of a compound of 1 μM to 10 mM is dispensed at 200 μL per well into a 96-well plate and cultured at 37° C. for 2 to 4 hours under anaerobic conditions, O.D., an ATP concentration (that can be quantitatively determined by using BacTiter-Glo (Promega Corporation)) and an indole concentration in the culture supernatant (that can be quantitatively determined by utilizing Ehrlich reaction) are measured. The effect of the tryptophanase inhibitory compound to suppress indole production from a viable bacterium can be evaluated depending on the degree of lowering of the indole concentration in the culture supernatant. It can be checked whether or not the effect is derived from a function other than tryptophanase inhibition, such as a bactericidal function or a bacterial growth inhibitory function, depending on lowering of the O.D. or reduction in the ATP concentration or by performing a generally practiced antibacterial activity test (a MIC (minimum growth inhibition concentration) test) using levofloxacin or the like as a positive control.
The activities of inhibiting indole production of the compounds of the respective examples shown in Table 13 were measured by the above-described method using Bacteroides to evaluate the effect of inhibiting indole production.

plasma indoxyl sulfate = test: Effect of reducing plasma indoxyl sulfate concentration in mice; assay type: in vivo; conditions: oral gavage, plasma 6 hours after L-tryptophan
Procedure: An effect of a tryptophanase inhibitory compound to reduce plasma indoxyl sulfate concentration in a mouse can be evaluated through the following operation.
After fasting male BALB/c mice overnight, a tryptophanase inhibitory compound dissolved or suspended at a concentration of 0.01 to 10 mg/mL in 0.5% methylcellulose (MC) solution used as a solvent and 0.5% MC solution are orally administered by gavage at a volume of 10 mL/kg respectively to test compound groups and to a solvent control group. 30 minutes after the administration of the test compound or the solvent, L-tryptophan, that is, a substrate of tryptophanase, is orally administered by gavage at a dose of 1 to 3 g/kg. The L-tryptophan is suspended in a 0.5% tragacanth solution. For 12 hours after the administration of the L-tryptophan, blood is collected over time from a tail vein by using a hematocrit tube. The thus obtained blood is centrifuged at 11,000 rpm for 5 minutes to collect plasma, and the indoxyl sulfate concentration in the plasma is measured singly by liquid chromatography (fluorescence detection) or its combination with a mass spectrometer used subsequently. Plasma indoxyl sulfate concentration in the test compound group against the plasma indoxyl sulfate concentration in the solvent control group is calculated as, for example, a ratio of the area under a curve of the indoxyl sulfate concentration, and thus, the efficacy of each compound in vivo can be compared.
The indoxyl sulfate concentrations in plasma obtained by using the compounds of the respective examples shown in Table 14 below were measured by the above-described method to evaluate the plasma indoxyl sulfate suppressing effect.

[1] = molecular target: tryptophanase of Bacteroides tetaiotaomicron (Bacteroides thetaiotaomicron, UniProt Q8A7N2); test: Tryptophanase enzyme inhibitory activity (LDH-coupled NADH loss); assay type: biochemical; conditions: 10 mM L-tryptophan, 30 min preincubation at 37° C., absorbance at 340 nm
Chain of tryptophanase of Bacteroides tetaiotaomicron (Q8A7N2 entry or part of it, change not shown): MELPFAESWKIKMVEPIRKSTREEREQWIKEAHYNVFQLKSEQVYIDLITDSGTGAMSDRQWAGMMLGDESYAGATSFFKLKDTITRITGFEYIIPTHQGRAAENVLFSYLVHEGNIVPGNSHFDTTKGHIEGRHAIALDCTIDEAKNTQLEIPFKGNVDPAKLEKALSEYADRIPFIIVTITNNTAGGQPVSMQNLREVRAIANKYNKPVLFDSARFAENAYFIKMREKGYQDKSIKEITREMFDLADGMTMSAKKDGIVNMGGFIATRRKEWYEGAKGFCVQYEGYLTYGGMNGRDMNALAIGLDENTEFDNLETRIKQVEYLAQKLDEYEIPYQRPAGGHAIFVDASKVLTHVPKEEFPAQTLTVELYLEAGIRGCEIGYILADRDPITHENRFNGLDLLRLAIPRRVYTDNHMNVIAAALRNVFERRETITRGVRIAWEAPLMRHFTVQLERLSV
Procedure: Tryptophanase inhibitory activity was evaluated by a method using lactate dehydrogenase (LDH). The reaction time-dependent reduction in NADH conjugated with the enzymatic reaction, with LDH, of pyruvic acid produced through the enzymatic reaction of L-tryptophan as a substrate with tryptophanase, was measured with a spectrophotometer (Phillips-R S et al., Biochemistry, 23, 6228-6234 (1984)). Enzyme inhibitory activity obtained without adding a test compound (by adding DMSO alone) in the presence of tryptophanase was used as a control. As the enzyme, tryptophanase of Bacteroides tetaiotaomicron (Genbank accession number: HC914434.1) was used.
A test compound solution was prepared by dissolving each test compound in DMSO at concentrations (from 30 mM to 30 nM at 10-fold common ratio). LDH, NADH and L-tryptophan were dissolved, using distilled water, respectively to concentrations of 80 units/mL, 10 mM and 50 mM. Bacteroides tryptophanase was prepared to 30 mg/mL. A potassium phosphate buffer was used as the buffer.
A reaction solution A was dispensed at 284.8 μL per well into a 96-well plate, and the test compound solution was added at 3.2 μL per well to obtain a final concentration of 1/100 (reaction solution B). The reaction solution B was incubated at 37° C. for 30 minutes, L-tryptophan was added thereto at 32 μL per well to obtain a final concentration of […] (reaction solution C), and the enzyme reaction was performed at 37° C. over 30 minutes with absorbance at 340 nm measured for monitoring the NADH loss. Based on the NADH loss, the tryptophanase inhibitory activity of the compound was evaluated.

## CCC(CC)(NC(=O)c1cc(Cl)c(N)cc1OC)C(=O)O [Compound of Example 6, 2-[(4-Amino-5-chloro-2-methoxybenzoyl)amino]-2-ethylbutanoic Acid]
Bacteroides
  IC50: < 3000 nM
Plasma indoxyl sulfate
  Plasma Indoxyl Sulfate Reduction Effect in Male BALB/c Mouse (Indoxyl sulfate reduction effect in plasma 6 hours after administration of L-tryptophan: ED75-, mg/kg): 1 mg/kg
[1]
  IC50: 200 nM

## CC[C@@](C)(NC(=O)c1cc(Cl)c(N)cc1OC)C(=O)O [Compound of Example 10, (−)-N-(4-Amino-5-chloro-2-methoxybenzoyl)-D-isovaline]
Bacteroides
  IC50: < 3000 nM
Plasma indoxyl sulfate
  Plasma Indoxyl Sulfate Reduction Effect in Male BALB/c Mouse (Indoxyl sulfate reduction effect in plasma 6 hours after administration of L-tryptophan: ED75-, mg/kg): 1 mg/kg
[1]
  IC50: 1530 nM

## CCOc1cc(N)c(Cl)cc1C(=O)N[C@](C)(CC)C(=O)O [Compound of Example 11, (−)-N-(4-Amino-5-chloro-2-ethoxybenzoyl)-D-isovaline]
Bacteroides
  IC50: < 3000 nM
Plasma indoxyl sulfate
  Plasma Indoxyl Sulfate Reduction Effect in Male BALB/c Mouse (Indoxyl sulfate reduction effect in plasma 6 hours after administration of L-tryptophan: ED75-, mg/kg): 1 mg/kg
[1]
  IC50: 90 nM

## CC[C@@](C)(NC(=O)c1cc(Br)c(N)cc1OC)C(=O)O [Compound of Example 15, (−)-N-(4-Amino-5-bromo-2-methoxybenzoyl)-D-isovaline]
Bacteroides
  IC50: < 3000 nM
Plasma indoxyl sulfate
  Plasma Indoxyl Sulfate Reduction Effect in Male BALB/c Mouse (Indoxyl sulfate reduction effect in plasma 6 hours after administration of L-tryptophan: ED75-, mg/kg): 1 mg/kg
[1]
  IC50: 770 nM

## CC[C@@](C)(NC(=O)c1cc(I)c(N)cc1OC)C(=O)O [Compound of Example 16, (−)-N-(4-Amino-5-iodo-2-methoxybenzoyl)-D-isovaline]
Bacteroides
  IC50: < 3000 nM
Plasma indoxyl sulfate
  Plasma Indoxyl Sulfate Reduction Effect in Male BALB/c Mouse (Indoxyl sulfate reduction effect in plasma 6 hours after administration of L-tryptophan: ED75-, mg/kg): 1 mg/kg
[1]
  IC50: 360 nM

## CCOc1cc(N)c(Br)cc1C(=O)N[C@](C)(CC)C(=O)O [Compound of Example 21, (−)-N-(4-Amino-5-bromo-2-ethoxybenzoyl)-D-isovaline]
Bacteroides
  IC50: < 3000 nM
Plasma indoxyl sulfate
  Plasma Indoxyl Sulfate Reduction Effect in Male BALB/c Mouse (Indoxyl sulfate reduction effect in plasma 6 hours after administration of L-tryptophan: ED75-, mg/kg): 1 mg/kg
[1]
  IC50: 100 nM

## CCOc1cc(N)c(F)cc1C(=O)N[C@](C)(CC)C(=O)O [Compound of Example 23, (−)-N-(4-Amino-2-ethoxy-5-fluorobenzoyl)-D-isovaline]
Bacteroides
  IC50: < 3000 nM
Plasma indoxyl sulfate
  Plasma Indoxyl Sulfate Reduction Effect in Male BALB/c Mouse (Indoxyl sulfate reduction effect in plasma 6 hours after administration of L-tryptophan: ED75-, mg/kg): 1 mg/kg
[1]
  IC50: 490 nM

## CCOc1cc(N)c(F)cc1C(=O)N[C@@](C)(CC)C(=O)O [Compound of Example 24, (+)-N-(4-Amino-2-ethoxy-5-fluorobenzoyl)-L-isovaline]
Bacteroides
  IC50: < 3000 nM
Plasma indoxyl sulfate
  Plasma Indoxyl Sulfate Reduction Effect in Male BALB/c Mouse (Indoxyl sulfate reduction effect in plasma 6 hours after administration of L-tryptophan: ED75-, mg/kg): 1 mg/kg
[1]
  IC50: 130 nM

## CCCOc1cc(N)c(Cl)cc1C(=O)N[C@](C)(CC)C(=O)O [Compound of Example 25, (−)-N-(4-Amino-5-chloro-2-propoxybenzoyl)-D-isovaline]
Bacteroides
  IC50: < 3000 nM
Plasma indoxyl sulfate
  Plasma Indoxyl Sulfate Reduction Effect in Male BALB/c Mouse (Indoxyl sulfate reduction effect in plasma 6 hours after administration of L-tryptophan: ED75-, mg/kg): 1 mg/kg
[1]
  IC50: 40 nM

## CCCOc1cc(N)c(F)cc1C(=O)N[C@](C)(CC)C(=O)O [Compound of Example 27, (−)-N-(4-Amino-5-fluoro-2-propoxybenzoyl)-D-isovaline]
Bacteroides
  IC50: < 3000 nM
Plasma indoxyl sulfate
  Plasma Indoxyl Sulfate Reduction Effect in Male BALB/c Mouse (Indoxyl sulfate reduction effect in plasma 6 hours after administration of L-tryptophan: ED75-, mg/kg): 1 mg/kg
[1]
  IC50: 90 nM

## CC[C@@](C)(NC(=O)c1cc(Cl)c(N)cc1OC(F)F)C(=O)O [Compound of Example 31, (−)-N-[4-Amino-5-chloro-2-(difluoromethoxy)benzoyl]-D-isovaline]
[1]
  IC50: 110 nM

## CCCOc1cc(N)c(F)cc1C(=O)NC(C)(C)C(=O)O [Compound of Example 32, N-(4-Amino-5-fluoro-2-propoxybenzoyl)-2-methylalanine]
[1]
  IC50: 540 nM
